Reference: PubChem BioAssay AID2060912 (Molecular Pharmacology Branch, DTP, NCI, 2025)

System: HUVEC/MSC spheroids viability
Experiment: Human HUVEC/MSC cell line growth inhibition [KRAS2];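 for viability, T/C: percent of DMSO vehicle control luminescence so 100% = untreated viability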
Conditions: for IC50: curve of first compound; for viability, T/C: stronger effect = lower value
In short: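 HUVEC + hMSC stromal spheroids only, no malignant cells; 37 °C, 5% CO2. Drugs singly and in pairs, half-log series down from clinical Cmax (max 10 microM if Cmax undetermined).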

[1] = second compound 0.0316 µM, first compound 0.0316 µM
[2] = second compound 0.0316 µM, first compound 0.1 µM
[3] = second compound 0.0316 µM, first compound 0.316 µM
[4] = second compound 0.0316 µM, first compound 1 µM
[5] = second compound 0.0316 µM, first compound 3.16 µM
[6] = second compound 0.0316 µM, first compound 10 µM
[7] = second compound 0.1 µM, first compound 0.0316 µM
[8] = second compound 0.1 µM, first compound 0.1 µM
[9] = second compound 0.1 µM, first compound 0.316 µM
[10] = second compound 0.1 µM, first compound 1 µM
[11] = second compound 0.1 µM, first compound 3.16 µM
[12] = second compound 0.1 µM, first compound 10 µM
[13] = second compound 0.316 µM, first compound 0.0316 µM
[14] = second compound 0.316 µM, first compound 0.1 µM
[15] = second compound 0.316 µM, first compound 0.316 µM
[16] = second compound 0.316 µM, first compound 1 µM
[17] = second compound 0.316 µM, first compound 3.16 µM
[18] = second compound 0.316 µM, first compound 10 µM
[19] = second compound 1 µM, first compound 0.0316 µM
[20] = second compound 1 µM, first compound 0.1 µM
[21] = second compound 1 µM, first compound 0.316 µM
[22] = second compound 1 µM, first compound 1 µM
[23] = second compound 1 µM, first compound 3.16 µM
[24] = second compound 1 µM, first compound 10 µM
[25] = second compound 3.16 µM, first compound 0.0316 µM
[26] = second compound 3.16 µM, first compound 0.1 µM
[27] = second compound 3.16 µM, first compound 0.316 µM
[28] = second compound 3.16 µM, first compound 1 µM
[29] = second compound 3.16 µM, first compound 3.16 µM
[30] = second compound 3.16 µM, first compound 10 µM
[31] = second compound 10 µM, first compound 0.0316 µM
[32] = second compound 10 µM, first compound 0.1 µM
[33] = second compound 10 µM, first compound 0.316 µM
[34] = second compound 10 µM, first compound 1 µM
[35] = second compound 10 µM, first compound 3.16 µM
[36] = second compound 10 µM, first compound 10 µM

Work on `CC(=O)Nc1cccc(-n2c(=O)n(C3CC3)c(=O)c3c(Nc4ccc(I)cc4F)n(C)c(=O)c(C)c32)c1` + CNCc1ccccc1-c1csc(C(C)Nc2nc(C)nc3cc(OC)c(OC)cc23)c1 yielded an IC50 (second compound 0.0316 µM) of 0.0125 µM, an IC50 (second compound 0.1 µM) of 0.0121 µM and an IC50 (second compound 0.316 µM) of 0.0132 µM. For the same molecule, the IC50 (second compound 1 µM) was 0.0131 µM, the IC50 (second compound 3.16 µM) was 0.0132 µM and the IC50 (second compound 10 µM) was < 9.49e-05 µM. It also gave a viability, T/C (second compound 0.0316 µM, first compound 94.9 pM) of 101%, a viability, T/C (second compound 0.0316 µM, first compound 0.0003 µM) of 130% and a viability, T/C (second compound 0.0316 µM, first compound 0.000949 µM) of 113%. It also gave a viability, T/C (second compound 0.0316 µM, first compound 0.003 µM) of 83.6%, a viability, T/C (second compound 0.0316 µM, first compound 0.00949 µM) of 66.7% and a viability, T/C (second compound 0.0316 µM, first compound 0.03 µM) of 9.37%. The viability, T/C (second compound 0.1 µM, first compound 94.9 pM) was 102%, the viability, T/C (second compound 0.1 µM, first compound 0.0003 µM) was 109% and the viability, T/C (second compound 0.1 µM, first compound 0.000949 µM) was 95.5%. The viability, T/C (second compound 0.1 µM, first compound 0.003 µM) was 75.7%, the viability, T/C (second compound 0.1 µM, first compound 0.00949 µM) was 67% and the viability, T/C (second compound 0.1 µM, first compound 0.03 µM) was 9.94%. For the same molecule, the viability, T/C (second compound 0.316 µM, first compound 94.9 pM) was 93.6%, the viability, T/C (second compound 0.316 µM, first compound 0.0003 µM) was 99.6% and the viability, T/C (second compound 0.316 µM, first compound 0.000949 µM) was 101%. The viability, T/C (second compound 0.316 µM, first compound 0.003 µM) was 85.9%, the viability, T/C (second compound 0.316 µM, first compound 0.00949 µM) was 65.4% and the viability, T/C (second compound 0.316 µM, first compound 0.03 µM) was 13.4%. It also gave a viability, T/C (second compound 1 µM, first compound 94.9 pM) of 86.5%, a viability, T/C (second compound 1 µM, first compound 0.0003 µM) of 103% and a viability, T/C (second compound 1 µM, first compound 0.000949 µM) of 92.2%. It also gave a viability, T/C (second compound 1 µM, first compound 0.003 µM) of 84.6%, a viability, T/C (second compound 1 µM, first compound 0.00949 µM) of 67.2% and a viability, T/C (second compound 1 µM, first compound 0.03 µM) of 7.22%. The viability, T/C (second compound 3.16 µM, first compound 94.9 pM) was 84.5%, the viability, T/C (second compound 3.16 µM, first compound 0.0003 µM) was 132% and the viability, T/C (second compound 3.16 µM, first compound 0.000949 µM) was 103%. For the same molecule, the viability, T/C (second compound 3.16 µM, first compound 0.003 µM) was 103%, the viability, T/C (second compound 3.16 µM, first compound 0.00949 µM) was 70.2% and the viability, T/C (second compound 3.16 µM, first compound 0.03 µM) was 0.49%. For the same molecule, the viability, T/C (second compound 10 µM, first compound 94.9 pM) was 0.38%, the viability, T/C (second compound 10 µM, first compound 0.0003 µM) was 0.41% and the viability, T/C (second compound 10 µM, first compound 0.000949 µM) was 0.37%. It also gave a viability, T/C (second compound 10 µM, first compound 0.003 µM) of 0.33%, a viability, T/C (second compound 10 µM, first compound 0.00949 µM) of 0.36% and a viability, T/C (second compound 10 µM, first compound 0.03 µM) of 0.28%.

With `COc1cc(Nc2ncc3c(n2)-c2ccc(Cl)cc2C(c2c(F)cccc2OC)=NC3)ccc1C(=O)O` + CNCc1ccccc1-c1csc(C(C)Nc2nc(C)nc3cc(OC)c(OC)cc23)c1 the IC50 (second compound 0.0316 µM) was 9.93 µM, the IC50 (second compound 0.1 µM) was > 10 µM and the IC50 (second compound 0.316 µM) was 8.79 µM. The IC50 (second compound 1 µM) was 9.31 µM, the IC50 (second compound 3.16 µM) was > 10 µM and the IC50 (second compound 10 µM) was < 0.0316 µM. The viability, T/C [1] was 92.9%, the viability, T/C [2] was 104% and the viability, T/C [3] was 101%. For the same molecule, the viability, T/C [4] was 87.3%, the viability, T/C [5] was 84.6% and the viability, T/C [6] was 49.2%. The viability, T/C [7] was 93.2%, the viability, T/C [8] was 80.8% and the viability, T/C [9] was 98%. It also gave a viability, T/C [10] of 80.3%, a viability, T/C [11] of 84% and a viability, T/C [12] of 56.7%. The viability, T/C [13] was 71.1%, the viability, T/C [14] was 90.8% and the viability, T/C [15] was 79.5%. The viability, T/C [16] was 73.3%, the viability, T/C [17] was 83.7% and the viability, T/C [18] was 46.3%. It also gave a viability, T/C [19] of 75.5%, a viability, T/C [20] of 76.6% and a viability, T/C [21] of 97.3%. For the same molecule, the viability, T/C [22] was 74.5%, the viability, T/C [23] was 92.4% and the viability, T/C [24] was 47.8%. The viability, T/C [25] was 101%, the viability, T/C [26] was 106% and the viability, T/C [27] was 97.8%. The viability, T/C [28] was 90.4%, the viability, T/C [29] was 100% and the viability, T/C [30] was 50.7%. The viability, T/C [31] was 0.4%, the viability, T/C [32] was 0.4% and the viability, T/C [33] was 0.37%. The viability, T/C [34] was 0.36%, the viability, T/C [35] was 0.41% and the viability, T/C [36] was 0.32%.

`COc1cc2nccc(Oc3ccc(NC(=O)C4(C(=O)Nc5ccc(F)cc5)CC4)cc3)c2cc1OC` + CNCc1ccccc1-c1csc(C(C)Nc2nc(C)nc3cc(OC)c(OC)cc23)c1 gave an IC50 (second compound 0.0316 µM) of 5.9 µM, an IC50 (second compound 0.1 µM) of 5.67 µM and an IC50 (second compound 0.316 µM) of 6.1 µM. The IC50 (second compound 1 µM) was 4.98 µM, the IC50 (second compound 3.16 µM) was 1.84 µM and the IC50 (second compound 10 µM) was < 0.0316 µM. It also gave a viability, T/C [1] of 87.7%, a viability, T/C [2] of 86.5% and a viability, T/C [3] of 78.2%. For the same molecule, the viability, T/C [4] was 65.8%, the viability, T/C [5] was 84.2% and the viability, T/C [6] was 24.3%. The viability, T/C [7] was 67%, the viability, T/C [8] was 88.8% and the viability, T/C [9] was 87%. The viability, T/C [10] was 81%, the viability, T/C [11] was 78.2% and the viability, T/C [12] was 22.7%. The viability, T/C [13] was 86.6%, the viability, T/C [14] was 90.9% and the viability, T/C [15] was 72%. For the same molecule, the viability, T/C [16] was 71.2%, the viability, T/C [17] was 81.4% and the viability, T/C [18] was 27.1%. The viability, T/C [19] was 69.6%, the viability, T/C [20] was 67.3% and the viability, T/C [21] was 66.6%. It also gave a viability, T/C [22] of 97.6%, a viability, T/C [23] of 99.7% and a viability, T/C [24] of 3.5%. It also gave a viability, T/C [25] of 96.7%, a viability, T/C [26] of 104% and a viability, T/C [27] of 108%. It also gave a viability, T/C [28] of 115%, a viability, T/C [29] of 0.31% and a viability, T/C [30] of 0.22%. It also gave a viability, T/C [31] of 0.36%, a viability, T/C [32] of 0.41% and a viability, T/C [33] of 0.99%. The viability, T/C [34] was 0.46%, the viability, T/C [35] was 0.43% and the viability, T/C [36] was 0.25%.
